Patent publication US20260183393A1, “IMMUNOSUPPRESSANT-RESISTANT MODIFIED ALLOGENEIC MODIFIED IMMUNE CELLS AND METHODS FOR USE THEREOF” (Beam Therapeutics Inc., priority 2023, published 2026)

Columns and labels:
Assay type in all cases: cell-based, human
alloreactive T cells = experiment: Mixed leukocyte reaction: priming and proliferation of alloreactive T cells with immunosuppressants; details: for proliferation of alloreactive T cells: CellTrace Violet-labeled T cells with PBMCs from HLA disparate donors, RPM 10^−2 to 10^−4 mg mL^−1, TAC 10^0 to 10^−2 mg mL^−1, relative to VEH; for proliferation of the T cells: rapamycin 0.001 μg/mL or tacrolimus 0.1 μg/mL, HLA-mismatched PBMCs 1:1, day 7, CellTrace dilution
Description: Purified primary human T cells (effector cells) from a donor (Donor #1) were labeled with CellTrace™ dye and co-cultured at a 1:1 effector-to-target cell ratio with HLA-mismatched peripheral blood mononuclear cells (PBMCs) from another donor (Donor #2) that were pretreated with mitomycin C to inhibit their growth (mitomycin C inhibits cell growth). The cells were co-cultured in the presence of the immunosuppressant rapamycin (0.001 μg/mL) or tacrolimus (0.1 μg/mL) or in the presence of dimethylsulfoxide (DMSO) in place of any immunosuppressant. The immunosuppressant or DMSO was re-administered to the cultures every 48 hours. On day 7, proliferation was measured as dilution of the CellTrace™ dye assessed using flow cytometry. The numbers at the lower-left of each plot indicate the percent of total cells counted falling within the indicated region.
First, human leukocyte antigen (HLA) mismatched peripheral blood mononuclear cells (PBMCs) from a donor were co-cultured in the presence and absence of an immunosuppressant agents with T cells from a different donor that were labeled using a CellTrace dye for measuring cell proliferation. The peripheral blood mononuclear cells (PBMC) cells were treated with mitomycin C prior to being co-cultured to prevent proliferation of the PBMC cells.
It was first determined if immunosuppressants mitigate the in vitro priming of alloreactive T cells. To do so, peripheral blood mononuclear cells and CellTrace Violet-labeled T cells from HLA disparate donors were cultured in the presence of rapamycin (RPM), tacrolimus (TAC) or vehicle (VEH) control. […] Next, it was tested whether immunosuppressants alleviated in vivo T cell-driven rejection of allogeneic HLA-I CAR-T cells. Five cohorts of human immune system (HIS) mice derived from unrelated human donors were injected daily with RPM, TAC, or VEH for 2 weeks, and at 1-day post-treatment initiation all mice were co-infused with an equal amount of allogeneic HLA^+ and HLA-deficient CAR-T cells (FIG. 16A). Cohorts #3 and #4 also received syngeneic human immune system (HIS) mouse-derived CAR-T cells to control for autologous T cell persistence. […]
For the study described in FIGS. 21A to 21C, CellTrace Violet (Thermo Fisher Scientific) CD3^+ T cells (effectors) and CD3-depleted PBMCs (targets) from HLA disparate donors were cultured in triplicate at a 1:1 ratio in complete medium supplemented with 300 U mL^−1 IL-2. […] Frequency of dividing effector CD8^+ and CD4^+ T cells was measured at day 5 and 7 post-stimulation by flow cytometry.

NK cells = experiment: NK cell-mediated lysis of HLA class-I negative T cells with immunosuppressants; details: 10 μg/mL; 4:1 effector-to-target ratio; 48 hours of co-culture
Description: The rightmost plots represent the ratio of HLA class-I negative (target cells) and positive T cells in the absence of any NK cells (effector cells) (i.e., a culture with an effector-to-target cell ratio (E:T) of 0:1 because the culture contained no effector cells and only the target cells). Primary human NK cells were activated in vitro with IL-2 and IL-15 cytokines for 72 hours. The activated NK cells were then cultured for 24 hours in the presence of rapamycin (10 μg/mL), tacrolimus (10 μg/mL), or a dimethylsulfoxide (DMSO) control. After the 24 hours, the NK cells were then co-cultured at a 4:1 effector-to-target ratio with an equal mixture of unedited HLA class-I positive (off-target cells) or beta-2-microglobulin (B2M) knock-out (HLA class-I deficient) T cells (target cells) in the presence or absence if the immunosuppressant rapamycin or tacrolimus. T cells co-cultured in the absence of NK cells (0:1 E:T ratio) were used as control. Following 48 hours of co-culture, the frequency of HLA class-I negative and positive T cells was assessed using flow cytometry by immunostaining for pan HLA class-I (ABC). The numbers within each plot indicate the percent of total cells counted falling within the indicated region, where the left regions correspond to HLA class-I negative cells and the right regions correspond to HLA class-I positive cells. […]

Nalm6 = experiment: Cell growth kinetics with rapamycin, Nalm6; details: RPM at different concentrations
Description: FIGS. 26A to 26E provide histograms and plots showing malignant B cell lines were sensitive to Rapamycin treatment in vitro. FIG. 26A provides histograms showing geometric median fluorescent intensity (MFI) of phosphorylated mTOR (pS2448), S6 (pS235/[…]) and 4EBP1 (pT36/T45) in JeKo-1, Raji and Nalm6 cell lines, as well as primary human monocytes and bulk lymphocytes. FIGS. 26B to 26D relate to an experiment where JeKo-1, Raji and Nalm6 cells were treated with DMSO or Rapamycin (RPM) and then analyzed for phosphorylation level of mTOR (FIG. 26B), S6 (FIG. 26C) and 4EBP1 (FIG. 26D). FIG. 26E provides plots showing JeKo-1, Raji and Nalm6 cell growth kinetics after treatment with DMSO or RPM at different concentrations. Symbols indicate mean and error bars show ±s.e.m.

Compound: CO[C@H]1C[C@@H]2CC[C@@H](C)[C@@](O)(O2)C(=O)C(=O)N2CCCC[C@H]2C(=O)O[C@H]([C@H](C)C[C@@H]2CC[C@@H](O)[C@H](OC)C2)CC(=O)[C@H](C)/C=C(\C)[C@@H](O)[C@@H](OC)C(=O)[C@H](C)C[C@H](C)/C=C/C=C/C=C/1C [rapamycin, Rapamycin]
- proliferation of alloreactive T cells (alloreactive T cells): severely attenuated the proliferation of alloreactive T cells
- proliferation of the T cells (alloreactive T cells): hindered proliferation of the T cells
- NK cell-mediated lysis of HLA class-I negative T cells (NK cells): attenuated
- in vitro proliferation (Nalm6): inhibited in vitro proliferation

Compound: C=CC[C@@H]1/C=C(\C)C[C@H](C)C[C@H](OC)[C@H]2O[C@@](O)(C(=O)C(=O)N3CCCC[C@H]3C(=O)O[C@H](/C(C)=C/[C@@H]3CC[C@@H](O)[C@H](OC)C3)[C@H](C)[C@@H](O)CC1=O)[C@H](C)C[C@@H]2OC [tacrolimus, Tacrolimus]
- proliferation of alloreactive T cells (alloreactive T cells): severely attenuated the proliferation of alloreactive T cells
- proliferation of the T cells (alloreactive T cells): hindered proliferation of the T cells
- NK cell-mediated lysis of HLA class-I negative T cells (NK cells): attenuated
